The text below walks through data of ChEMBL document CHEMBL1201862, “PubChem BioAssay data set” (2004).

Test systems include SN12C; COLO 205; U-251; HCC 2998; OVCAR-4; NCI-H522; OVCAR-5; SF-295; HCT-15; NCI-H23; SK-MEL-2; SK-MEL-5; M14; A549; UACC-62; HOP-62; ACHN; EKVX; A498.
Common to all, as to assay: NCI anticancer screen, dose series, 48 h

Structures are written as SMILES.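 Grown in 96-well plates, cells were treated for 48 hours with each compound at five concentrations. Insufficient inhibition: endpoint recorded as highest concentration tested. GI50: concentration for 50% inhibition of growth.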 Activity calls are given as the source filed them. Cut-off read from the data, not from the text of the source: active = GI50 up to about 1.1 µM and inactive = higher.

With `CCOC(=O)[C@H]1Nc2c(cccc2[N+](=O)[O-])C2c3ccccc3CC21` (some centres undefined), the GI50 with SN12C is > 100 µM (inactive); in the test with COLO 205 it was > 100 µM (inactive); in the test with U-251 it was > 100 µM (inactive); in the test on HCC 2998, > 100 µM (inactive); in the test on OVCAR-4, 36.9 µM (inactive); in the test on NCI-H522, > 100 µM (inactive). In addition, the GI50 was > 100 µM (inactive) in the test on OVCAR-5; 35.6 µM (inactive) with SF-295; greater than 100 µM with HCT-15; > 100 µM (inactive) in the test with NCI-H23; > 100 µM (inactive) in the test on SK-MEL-2; > 100 µM (inactive) in the test on SK-MEL-5. Also, the GI50 is > 100 µM (inactive) in the test with M14; > 100 µM (inactive) in the test with A549; > 100 µM (inactive) with UACC-62; > 100 µM (inactive) with HOP-62; 28.4 µM (inactive) in the test with ACHN.

Turning to `CCCCCC/C(CC(=O)CCC(=O)NCCc1ccccc1)=N\NC(=O)c1ccc2ccccc2c1O`, the GI50 with SN12C is 49.5 µM (inactive); in the test on COLO 205 it was 54.2 µM (inactive); in the test with U-251, 37.9 µM (inactive); in the test on HCC 2998, 53.3 µM (inactive); with OVCAR-4 it was 37.8 µM (inactive); in the test with OVCAR-5, 21.5 µM (inactive). The GI50 with SF-295 was 48 µM (inactive); with EKVX, 43.2 µM (inactive); in the test with NCI-H23, 31.6 µM (inactive); in the test with SK-MEL-2, 20 µM (inactive); in the test with SK-MEL-5, 29.5 µM (inactive); in the test on M14 it was 33.3 µM (inactive). For the same molecule, the GI50 in the test with A549 is 48.2 µM (inactive); in the test on UACC-62 it was 22 µM (inactive); in the test on HOP-62 it was 36.7 µM (inactive); with ACHN it was 28.2 µM (inactive).

With `C#Cc1c(C)c(/C=C/C(C)=C\C(=O)OC)n(C)c1C`, the GI50 in the test with SN12C is > 100 µM (inactive); in the test on COLO 205, 61.2 µM (inactive); in the test on U-251, > 100 µM (inactive); in the test on HCC 2998, > 100 µM (inactive); with OVCAR-4, 75.9 µM (inactive); in the test with A498, 81.3 µM (inactive). Moreover, the GI50 in the test with NCI-H522 was 50.7 µM (inactive); in the test with OVCAR-5 it was > 100 µM (inactive); in the test with SF-295, > 100 µM (inactive); in the test with HCT-15, 92.9 µM; with EKVX, > 100 µM (inactive); with NCI-H23, > 100 µM (inactive). Also, the GI50 in the test with M14 is > 100 µM (inactive); in the test on A549 it was > 100 µM (inactive); in the test on UACC-62 it was 70.8 µM (inactive); in the test on HOP-62, 71.1 µM (inactive); with ACHN, 47.8 µM (inactive).

Consider `Nc1nc(SCCC/C=C/I)nc2c1ncn2C1OC(CO)C(O)C1O` (centres undefined), for which the GI50 in the test with SN12C, in the test on COLO 205, in the test with U-251, in the test with OVCAR-4, in the test on A498 and with NCI-H522 was > 202 µM (inactive) in each case. For the same molecule, the GI50 in the test on OVCAR-5 is > 202 µM (inactive); with SF-295, > 202 µM (inactive); in the test on HCT-15, greater than 202 µM; in the test on NCI-H23, > 202 µM (inactive); in the test with SK-MEL-2, > 202 µM (inactive); in the test with SK-MEL-5, > 202 µM (inactive). The GI50 with M14, with A549, in the test with UACC-62, with HOP-62 and in the test with ACHN was > 202 µM (inactive) each time.

As to `COC(=O)c1sc(=NC(=S)N2CCCCC2)sc1C(=O)OC`, the GI50 was > 100 µM (inactive) with SN12C; 63 µM (inactive) in the test with COLO 205; 32.4 µM (inactive) in the test on U-251; > 100 µM (inactive) in the test on HCC 2998; > 100 µM (inactive) in the test with OVCAR-4; > 100 µM (inactive) in the test with A498. In addition, the GI50 was 0.569 µM (active) in the test on NCI-H522; greater than 100 µM with HCT-15; > 100 µM (inactive) in the test on SK-MEL-2; 80.9 µM (inactive) with SK-MEL-5; > 100 µM (inactive) in the test on M14; > 100 µM (inactive) in the test on UACC-62. The GI50 in the test on HOP-62 and in the test with ACHN was > 100 µM (inactive) each time.

Take `[N-]=[N+]=CC(=O)c1ccccc1C#CCCc1ccccc1`: the GI50 in the test with SN12C was 35.5 µM (inactive); in the test with COLO 205, 32 µM (inactive); in the test with U-251, 10.2 µM (inactive); in the test on HCC 2998 it was 31.8 µM (inactive); in the test with OVCAR-4, 44.2 µM (inactive); in the test on A498, 28.4 µM (inactive). The GI50 in the test on NCI-H522 was 1.05 µM (active); with OVCAR-5, 50.5 µM (inactive); in the test on SF-295, 40.4 µM (inactive); in the test with HCT-15, 26.1 µM; with EKVX, 24.5 µM (inactive); in the test with NCI-H23, 21.5 µM (inactive). Besides, the GI50 in the test on SK-MEL-2 was 27.2 µM (inactive); in the test on SK-MEL-5, 15.7 µM (inactive); in the test on M14, 38.8 µM (inactive); with A549 it was 27.2 µM (inactive); in the test with UACC-62, 18.6 µM (inactive); with HOP-62 it was 31.6 µM (inactive). Moreover, the GI50 in the test on ACHN is 22.6 µM (inactive).

As to `Nc1nc(Cl)cc(NCCCCCCCCCCCCNc2cc(Cl)nc(N)n2)n1`, the GI50 with SN12C was 32.7 µM (inactive); in the test with COLO 205, 19.9 µM (inactive); in the test on U-251, 0.345 µM (active); with HCC 2998, 38.5 µM (inactive); in the test with OVCAR-4, 4.36 µM (inactive); in the test with A498, 12.9 µM (inactive). In addition, the GI50 in the test on SF-295 was 1.41 µM (inactive); in the test with HCT-15, 7.93 µM; in the test on EKVX, 12.3 µM (inactive); in the test on NCI-H23, 0.0136 µM (active); with SK-MEL-2 it was 34.4 µM (inactive); in the test with SK-MEL-5 it was 0.0861 µM (active). Besides, the GI50 in the test on M14 is 38 µM (inactive); in the test with A549, 7.45 µM (inactive); in the test on UACC-62, 6.84 µM (inactive); with HOP-62, 12.2 µM (inactive).

As for `CC1(C)CCc2cc3c(cc2O1)OC(C)(C)CC3=O`, the GI50 is 65.5 µM (inactive) with SN12C; > 100 µM (inactive) in the test with COLO 205; 90.8 µM (inactive) with U-251; 62.8 µM (inactive) with OVCAR-4; 2.39 µM (inactive) in the test on NCI-H522; 46.8 µM (inactive) in the test with OVCAR-5. The GI50 was > 100 µM (inactive) in the test on SF-295; 91.8 µM in the test with HCT-15; 93.5 µM (inactive) in the test with EKVX; 91.6 µM (inactive) in the test on NCI-H23; > 100 µM (inactive) in the test on SK-MEL-2; 21.1 µM (inactive) with SK-MEL-5. Besides, the GI50 in the test on M14 is > 100 µM (inactive); with A549, 75.2 µM (inactive); in the test on UACC-62 it was > 100 µM (inactive); in the test with HOP-62, 23.2 µM (inactive); with ACHN it was 88.9 µM (inactive).

As to `CCCCCC1CC(C(C)=O)CN1c1ccc(F)cc1` (centres undefined), the GI50 in the test with SN12C was 48.5 µM (inactive); in the test on COLO 205, 48.1 µM (inactive); with U-251, 41.5 µM (inactive); in the test on HCC 2998, 38.1 µM (inactive); with A498, 77.6 µM (inactive); in the test with NCI-H522, 21.2 µM (inactive). For the same molecule, the GI50 in the test with OVCAR-5 is > 100 µM (inactive); in the test with SF-295, 21.2 µM (inactive); with HCT-15, 52.8 µM; in the test with EKVX, 50.6 µM (inactive); with NCI-H23, 24.8 µM (inactive); in the test with SK-MEL-2 it was 38.9 µM (inactive). Further, the GI50 in the test with SK-MEL-5 is 19.8 µM (inactive); in the test with M14, 35 µM (inactive); in the test on A549, 51.4 µM (inactive); with ACHN, 26.9 µM (inactive).
